Consider ten compounds from ChEMBL document CHEMBL1201862, “PubChem BioAssay data set” (2004).

The structures appear in SMILES notation. The source made the active and inactive calls. A value given as a limit tells only on which side of the number the result lay.

In assay [1] the target is T1, Acyl-homoserine lactone acylase PvdQ (Pseudomonas aeruginosa (strain LESB58), UniProt Q9I194).
T1 sequence (Q9I194 whole entry): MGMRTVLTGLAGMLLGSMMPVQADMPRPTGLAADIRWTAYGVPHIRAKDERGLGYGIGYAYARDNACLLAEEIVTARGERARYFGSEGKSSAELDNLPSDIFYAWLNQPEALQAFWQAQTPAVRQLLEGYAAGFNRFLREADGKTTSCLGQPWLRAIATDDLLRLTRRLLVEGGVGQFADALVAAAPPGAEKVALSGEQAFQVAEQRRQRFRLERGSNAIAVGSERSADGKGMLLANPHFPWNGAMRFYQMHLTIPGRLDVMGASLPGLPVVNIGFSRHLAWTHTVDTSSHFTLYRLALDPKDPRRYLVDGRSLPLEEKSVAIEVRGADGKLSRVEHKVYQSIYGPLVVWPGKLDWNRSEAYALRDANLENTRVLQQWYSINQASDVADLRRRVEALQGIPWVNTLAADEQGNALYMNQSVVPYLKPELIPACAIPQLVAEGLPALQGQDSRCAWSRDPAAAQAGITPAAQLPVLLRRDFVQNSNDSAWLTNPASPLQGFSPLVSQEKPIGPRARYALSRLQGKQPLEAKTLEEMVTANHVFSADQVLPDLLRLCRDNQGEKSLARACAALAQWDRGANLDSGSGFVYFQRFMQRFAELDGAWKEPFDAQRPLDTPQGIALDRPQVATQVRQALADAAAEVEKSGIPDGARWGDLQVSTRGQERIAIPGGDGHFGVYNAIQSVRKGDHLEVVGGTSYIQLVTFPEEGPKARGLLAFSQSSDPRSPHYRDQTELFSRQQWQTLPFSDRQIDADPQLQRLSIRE
Briefly: P. aeruginosa PvdQ acylase inhibitors, dose response, biochemical, fluorescence, plate reader and imaging, cherry-picks (AID 493231).

Assay [2] deals with Photoreceptor-specific nuclear receptor (Homo sapiens, UniProt Q9Y5X4). The class given is functional.
The target of assay [3] is Peroxisome proliferator-activated receptor gamma/Nuclear receptor corepressor 2 (Homo sapiens, UniProt P37231+Q9Y618). In kind it is functional.
For a further assay, the target named is Ephrin type-A receptor 4 (Mus musculus, UniProt Q03137). Nature of the assay: inhibitors of EphA4 binding to KYL peptide, primary screen, biochemical, colorimetric, mouse EphA4 (AID 689). In kind it is functional.
Assay [4] concerns the target Eukaryotic translation initiation factor 4E (Mus musculus, UniProt P63073). Nature of the assay: eIF4E–eIF4G protein interaction inhibitors, dose response, biochemical, TR-FRET (AID 855).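 Also: potency for disrupting eIF4E binding to eIF4GI seen as loss of FRET.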 In kind it is functional.
Assay [5] is described as follows: cytotoxicity in HEK-293T cells, dose response, cytotoxicity control for BCR NF-kB inhibitor project, luminescence, B-cell screen hits (AID 489021).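 Also: HEK-293T cells carrying an NF-kB luciferase reporter; cells exposed to compound for about 14 hours before viability readout.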 In kind it is functional, cell-based.
Assay [6] deals with T2, Replicative DNA helicase DnaB (Mycobacterium tuberculosis, UniProt P9WMR3).
T2 sequence (P9WMR3 whole entry): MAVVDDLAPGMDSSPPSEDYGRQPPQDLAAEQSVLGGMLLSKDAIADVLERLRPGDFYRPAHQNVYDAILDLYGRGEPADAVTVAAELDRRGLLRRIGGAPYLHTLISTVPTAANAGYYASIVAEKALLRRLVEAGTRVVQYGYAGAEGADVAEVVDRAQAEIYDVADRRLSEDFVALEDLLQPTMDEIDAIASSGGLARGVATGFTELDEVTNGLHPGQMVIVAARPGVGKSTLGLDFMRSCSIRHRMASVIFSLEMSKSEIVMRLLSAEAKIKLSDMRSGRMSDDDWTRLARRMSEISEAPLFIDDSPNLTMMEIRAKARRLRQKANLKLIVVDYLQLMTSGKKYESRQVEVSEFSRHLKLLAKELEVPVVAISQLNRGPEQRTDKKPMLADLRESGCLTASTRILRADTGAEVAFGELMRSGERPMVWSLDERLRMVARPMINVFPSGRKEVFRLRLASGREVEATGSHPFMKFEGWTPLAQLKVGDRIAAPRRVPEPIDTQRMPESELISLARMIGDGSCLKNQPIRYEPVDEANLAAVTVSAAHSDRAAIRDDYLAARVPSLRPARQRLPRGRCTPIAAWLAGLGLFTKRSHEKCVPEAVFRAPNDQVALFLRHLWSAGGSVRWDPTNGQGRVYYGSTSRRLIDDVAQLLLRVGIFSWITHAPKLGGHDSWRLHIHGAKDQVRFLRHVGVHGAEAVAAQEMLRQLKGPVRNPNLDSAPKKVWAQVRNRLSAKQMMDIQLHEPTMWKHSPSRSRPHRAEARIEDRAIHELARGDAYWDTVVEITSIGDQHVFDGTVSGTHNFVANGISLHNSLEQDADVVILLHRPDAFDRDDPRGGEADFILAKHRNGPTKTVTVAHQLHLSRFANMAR
Nature of the assay: DnaB intein splicing inhibitors, dose response, biochemical, cell-free fluorescence (AID 449749). The class given is functional.

For a further assay, the target named is T3, Protein RecA (Mycobacterium tuberculosis, UniProt P9WHJ3).
T3 sequence (P9WHJ3 whole entry): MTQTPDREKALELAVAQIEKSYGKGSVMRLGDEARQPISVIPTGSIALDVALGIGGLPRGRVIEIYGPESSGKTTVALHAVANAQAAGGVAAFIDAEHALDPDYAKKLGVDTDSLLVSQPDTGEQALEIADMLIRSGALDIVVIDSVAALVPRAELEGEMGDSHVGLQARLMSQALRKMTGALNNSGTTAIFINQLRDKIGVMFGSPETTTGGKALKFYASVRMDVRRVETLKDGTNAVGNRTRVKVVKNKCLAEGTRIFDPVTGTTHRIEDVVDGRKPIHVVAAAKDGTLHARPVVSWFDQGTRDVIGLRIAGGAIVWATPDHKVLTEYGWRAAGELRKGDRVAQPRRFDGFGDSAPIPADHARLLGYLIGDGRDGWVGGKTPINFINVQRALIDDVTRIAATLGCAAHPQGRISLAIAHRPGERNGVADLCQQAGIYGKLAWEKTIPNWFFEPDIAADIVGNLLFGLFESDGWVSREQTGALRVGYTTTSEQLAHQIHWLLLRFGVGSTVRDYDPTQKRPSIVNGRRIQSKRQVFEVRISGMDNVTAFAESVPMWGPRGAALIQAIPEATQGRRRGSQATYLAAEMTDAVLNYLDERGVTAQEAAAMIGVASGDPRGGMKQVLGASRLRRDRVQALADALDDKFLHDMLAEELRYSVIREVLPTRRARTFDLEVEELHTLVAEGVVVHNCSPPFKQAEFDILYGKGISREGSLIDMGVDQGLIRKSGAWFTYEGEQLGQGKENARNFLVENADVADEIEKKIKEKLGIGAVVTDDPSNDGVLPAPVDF
Briefly: Fluorescence Cell-Free Homogeneous Dose Retest to Identify Inhibitors of RecA-Intein Splicing Activity. [Related pubchem assays (depositor defined):AID2097, AID2223, AID489010, AID492950]. The class given is functional.

The target of assay [7] is T4, Carboxy-terminal domain RNA polymerase II polypeptide A small phosphatase 1 (Homo sapiens, UniProt Q9GZU7).
T4 sequence (Q9GZU7 whole entry): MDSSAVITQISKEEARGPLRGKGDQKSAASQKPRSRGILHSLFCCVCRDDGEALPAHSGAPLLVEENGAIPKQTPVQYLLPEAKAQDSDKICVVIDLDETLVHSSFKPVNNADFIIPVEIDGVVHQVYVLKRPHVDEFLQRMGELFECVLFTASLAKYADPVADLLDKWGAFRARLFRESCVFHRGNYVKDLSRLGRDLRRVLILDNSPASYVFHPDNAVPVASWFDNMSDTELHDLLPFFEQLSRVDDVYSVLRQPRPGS
Nature of the assay: inhibitors of CTDSP1, concentration-response testing, biochemical assay, absorbance-based, actives from ultra-high-throughput screening (AID 540297). The class given is functional.

The target in a further assay is T5, Hexokinase (Trypanosoma brucei, UniProt Q38C41).
T5 sequence (Q38C41 whole entry): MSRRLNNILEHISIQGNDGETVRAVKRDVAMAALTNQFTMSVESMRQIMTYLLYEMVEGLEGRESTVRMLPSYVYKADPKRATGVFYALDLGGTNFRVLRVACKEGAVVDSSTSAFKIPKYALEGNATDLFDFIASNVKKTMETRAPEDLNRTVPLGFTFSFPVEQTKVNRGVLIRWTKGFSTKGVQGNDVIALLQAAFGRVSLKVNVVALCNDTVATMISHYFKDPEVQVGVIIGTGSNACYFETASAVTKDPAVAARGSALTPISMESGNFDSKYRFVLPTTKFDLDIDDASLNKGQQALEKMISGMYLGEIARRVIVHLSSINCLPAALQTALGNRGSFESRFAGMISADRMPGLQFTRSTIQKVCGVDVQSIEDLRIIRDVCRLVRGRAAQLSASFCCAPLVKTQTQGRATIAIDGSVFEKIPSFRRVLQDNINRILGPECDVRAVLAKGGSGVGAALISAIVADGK
Nature of the assay: Confirmation assay for inhibitors of Trypanosoma brucei hexokinase 1-Analogue-first series. [Related pubchem assays (depositor defined):AID1430, AID1632, AID2516, AID2560, AID2579, AID2600, AID449725, AID492951]. The class given is functional.

In the next assay the test system is CHO-K1. Nature of the assay: Counterscreen for antagonists of the orexin 1 receptor (OX1R; HCRTR1): Homogeneous time resolved fluorescence (HTRF)-based cell-based dose response assay to identify antagonists of the parental CHO-K1 cell line. [Related pubchem assays (depositor defined):AID434989, AID435008, AID463079, AID485270, AID492963, AID492964, AID492965, AID493232, AID504699, AID504701]. In kind it is functional. Conditions: Cricetulus griseus. On the technique in general: The purpose of a counterscreen is to sort out artefacts and off-target activity.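 Also: potency for inhibition of ATP-stimulated IP1 production as antagonists.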

A short description of assay [8]: Counterscreen for antagonists of the orexin 1 receptor (OX1R; HCRTR1): Fluorescence-based cell-based high throughput dose response assay to identify antagonists of the parental CHO cell line. [Related pubchem assays (depositor defined):AID434989, AID435008, AID463079, AID485270, AID492963, AID492964, AID492965, AID493232, AID504699, AID504701]. The class given is functional.

The target of assay [9] is T6, Orexin/Hypocretin receptor type 1 (Homo sapiens, UniProt O43613).
T6 sequence (O43613 whole entry): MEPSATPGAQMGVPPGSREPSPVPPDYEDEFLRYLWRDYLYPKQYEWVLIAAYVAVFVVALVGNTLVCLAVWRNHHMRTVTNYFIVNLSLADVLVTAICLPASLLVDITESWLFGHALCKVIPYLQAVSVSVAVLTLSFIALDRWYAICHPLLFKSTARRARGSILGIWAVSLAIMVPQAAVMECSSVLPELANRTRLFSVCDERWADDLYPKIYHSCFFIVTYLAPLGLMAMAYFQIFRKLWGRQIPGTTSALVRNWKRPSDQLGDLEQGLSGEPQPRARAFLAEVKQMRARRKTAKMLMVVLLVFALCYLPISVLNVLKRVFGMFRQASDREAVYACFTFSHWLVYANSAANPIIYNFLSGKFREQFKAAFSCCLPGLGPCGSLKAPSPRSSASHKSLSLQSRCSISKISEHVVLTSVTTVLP
Briefly: Homogeneous Time Resolved Fluorescence (HTRF)-based cell-based high throughput dose response assay for antagonists of the orexin 1 receptor (OX1R; HCRTR1). [Related pubchem assays (depositor defined):AID434989, AID435008, AID463079, AID485270, AID492963, AID492964, AID492965, AID493232, AID504717, AID504718]. The class given is functional. A general note: In TR-FRET formats the signal depends on donor and acceptor labels being close together.

The target of assay [10] is T6, Orexin/Hypocretin receptor type 1. Briefly: Fluorescence-based cell-based high throughput dose response assay for antagonists of the orexin 1 receptor (OX1R; HCRTR1). [Related pubchem assays (depositor defined):AID434989, AID435008, AID463079, AID485270, AID492963, AID492964, AID492965, AID493232, AID504717, AID504718]. The class given is functional.
Another assay has as its system HeLa. Nature of the assay: HeLa cell cytotoxicity, dose response, cytotoxicity control for MITF activator project, CellTiter-Glo luminescence, cherry-pick samples (AID 540259). The class given is functional, cell-based. The settings on record: Homo sapiens. (In general: Cellular ATP, detected with luciferase, serves as a proxy for viable cell number.)
The target of another assay is Cytochrome P450 2C9 (Homo sapiens, UniProt P11712). Conditions: Potency.

Chain of Eukaryotic translation initiation factor 4E (P63073 whole entry): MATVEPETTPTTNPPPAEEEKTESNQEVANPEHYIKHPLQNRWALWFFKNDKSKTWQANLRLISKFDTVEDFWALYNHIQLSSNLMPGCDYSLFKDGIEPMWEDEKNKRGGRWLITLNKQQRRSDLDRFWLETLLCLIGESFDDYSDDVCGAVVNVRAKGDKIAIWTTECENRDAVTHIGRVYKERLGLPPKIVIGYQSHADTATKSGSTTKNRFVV
Chain of Ephrin type-A receptor 4 (Q03137 whole entry): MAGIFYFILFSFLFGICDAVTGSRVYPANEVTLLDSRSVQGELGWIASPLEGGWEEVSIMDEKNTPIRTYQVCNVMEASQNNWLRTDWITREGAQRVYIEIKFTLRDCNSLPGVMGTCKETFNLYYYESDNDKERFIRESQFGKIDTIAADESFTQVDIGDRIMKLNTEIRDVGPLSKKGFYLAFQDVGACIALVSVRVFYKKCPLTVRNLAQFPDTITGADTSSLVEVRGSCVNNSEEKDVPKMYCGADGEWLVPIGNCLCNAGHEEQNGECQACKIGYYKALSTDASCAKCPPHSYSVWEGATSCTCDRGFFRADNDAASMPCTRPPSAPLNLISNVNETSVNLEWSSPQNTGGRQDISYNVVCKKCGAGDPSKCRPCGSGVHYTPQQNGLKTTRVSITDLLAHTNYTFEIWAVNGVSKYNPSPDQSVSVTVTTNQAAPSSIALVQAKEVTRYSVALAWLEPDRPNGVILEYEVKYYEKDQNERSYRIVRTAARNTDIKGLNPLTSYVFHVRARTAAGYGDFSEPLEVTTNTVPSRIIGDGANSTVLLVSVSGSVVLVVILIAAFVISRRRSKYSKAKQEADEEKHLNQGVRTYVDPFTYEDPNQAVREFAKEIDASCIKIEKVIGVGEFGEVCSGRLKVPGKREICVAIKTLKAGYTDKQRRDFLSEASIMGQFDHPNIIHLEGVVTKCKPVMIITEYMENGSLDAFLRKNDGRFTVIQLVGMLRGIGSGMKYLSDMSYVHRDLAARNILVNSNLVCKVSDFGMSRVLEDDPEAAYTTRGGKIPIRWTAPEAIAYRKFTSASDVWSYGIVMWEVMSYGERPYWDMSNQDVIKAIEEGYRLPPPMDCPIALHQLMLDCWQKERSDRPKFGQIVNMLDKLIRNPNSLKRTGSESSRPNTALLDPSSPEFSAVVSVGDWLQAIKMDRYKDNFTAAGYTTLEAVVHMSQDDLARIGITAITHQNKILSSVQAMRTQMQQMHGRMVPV
Chain of Photoreceptor-specific nuclear receptor (Q9Y5X4 whole entry): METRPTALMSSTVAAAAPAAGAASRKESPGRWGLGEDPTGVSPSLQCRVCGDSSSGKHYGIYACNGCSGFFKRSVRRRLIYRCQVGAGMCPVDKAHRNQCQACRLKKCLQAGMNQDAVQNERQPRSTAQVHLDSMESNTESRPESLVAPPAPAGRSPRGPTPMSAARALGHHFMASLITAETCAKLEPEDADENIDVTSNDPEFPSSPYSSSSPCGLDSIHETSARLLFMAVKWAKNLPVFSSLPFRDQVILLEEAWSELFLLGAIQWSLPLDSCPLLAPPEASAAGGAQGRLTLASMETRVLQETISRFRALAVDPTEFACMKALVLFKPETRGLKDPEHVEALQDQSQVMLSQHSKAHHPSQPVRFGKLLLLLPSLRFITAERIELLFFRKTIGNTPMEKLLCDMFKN
Chain of Peroxisome proliferator-activated receptor gamma/Nuclear receptor corepressor 2 (P37231 whole entry): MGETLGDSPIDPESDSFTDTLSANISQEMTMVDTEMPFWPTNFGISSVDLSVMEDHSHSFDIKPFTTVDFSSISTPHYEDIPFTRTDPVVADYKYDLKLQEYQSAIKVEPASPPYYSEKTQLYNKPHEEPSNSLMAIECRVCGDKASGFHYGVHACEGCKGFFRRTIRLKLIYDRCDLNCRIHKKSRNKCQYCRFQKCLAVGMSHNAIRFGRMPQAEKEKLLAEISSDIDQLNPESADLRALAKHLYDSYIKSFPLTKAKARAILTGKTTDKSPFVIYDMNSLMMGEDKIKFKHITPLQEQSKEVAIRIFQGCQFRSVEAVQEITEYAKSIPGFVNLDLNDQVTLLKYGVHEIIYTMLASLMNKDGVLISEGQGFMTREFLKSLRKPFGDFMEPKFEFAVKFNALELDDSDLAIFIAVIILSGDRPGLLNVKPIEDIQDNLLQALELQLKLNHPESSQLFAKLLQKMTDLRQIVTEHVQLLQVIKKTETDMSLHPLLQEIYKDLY
Chain of Peroxisome proliferator-activated receptor gamma/Nuclear receptor corepressor 2 (Q9Y618 whole entry): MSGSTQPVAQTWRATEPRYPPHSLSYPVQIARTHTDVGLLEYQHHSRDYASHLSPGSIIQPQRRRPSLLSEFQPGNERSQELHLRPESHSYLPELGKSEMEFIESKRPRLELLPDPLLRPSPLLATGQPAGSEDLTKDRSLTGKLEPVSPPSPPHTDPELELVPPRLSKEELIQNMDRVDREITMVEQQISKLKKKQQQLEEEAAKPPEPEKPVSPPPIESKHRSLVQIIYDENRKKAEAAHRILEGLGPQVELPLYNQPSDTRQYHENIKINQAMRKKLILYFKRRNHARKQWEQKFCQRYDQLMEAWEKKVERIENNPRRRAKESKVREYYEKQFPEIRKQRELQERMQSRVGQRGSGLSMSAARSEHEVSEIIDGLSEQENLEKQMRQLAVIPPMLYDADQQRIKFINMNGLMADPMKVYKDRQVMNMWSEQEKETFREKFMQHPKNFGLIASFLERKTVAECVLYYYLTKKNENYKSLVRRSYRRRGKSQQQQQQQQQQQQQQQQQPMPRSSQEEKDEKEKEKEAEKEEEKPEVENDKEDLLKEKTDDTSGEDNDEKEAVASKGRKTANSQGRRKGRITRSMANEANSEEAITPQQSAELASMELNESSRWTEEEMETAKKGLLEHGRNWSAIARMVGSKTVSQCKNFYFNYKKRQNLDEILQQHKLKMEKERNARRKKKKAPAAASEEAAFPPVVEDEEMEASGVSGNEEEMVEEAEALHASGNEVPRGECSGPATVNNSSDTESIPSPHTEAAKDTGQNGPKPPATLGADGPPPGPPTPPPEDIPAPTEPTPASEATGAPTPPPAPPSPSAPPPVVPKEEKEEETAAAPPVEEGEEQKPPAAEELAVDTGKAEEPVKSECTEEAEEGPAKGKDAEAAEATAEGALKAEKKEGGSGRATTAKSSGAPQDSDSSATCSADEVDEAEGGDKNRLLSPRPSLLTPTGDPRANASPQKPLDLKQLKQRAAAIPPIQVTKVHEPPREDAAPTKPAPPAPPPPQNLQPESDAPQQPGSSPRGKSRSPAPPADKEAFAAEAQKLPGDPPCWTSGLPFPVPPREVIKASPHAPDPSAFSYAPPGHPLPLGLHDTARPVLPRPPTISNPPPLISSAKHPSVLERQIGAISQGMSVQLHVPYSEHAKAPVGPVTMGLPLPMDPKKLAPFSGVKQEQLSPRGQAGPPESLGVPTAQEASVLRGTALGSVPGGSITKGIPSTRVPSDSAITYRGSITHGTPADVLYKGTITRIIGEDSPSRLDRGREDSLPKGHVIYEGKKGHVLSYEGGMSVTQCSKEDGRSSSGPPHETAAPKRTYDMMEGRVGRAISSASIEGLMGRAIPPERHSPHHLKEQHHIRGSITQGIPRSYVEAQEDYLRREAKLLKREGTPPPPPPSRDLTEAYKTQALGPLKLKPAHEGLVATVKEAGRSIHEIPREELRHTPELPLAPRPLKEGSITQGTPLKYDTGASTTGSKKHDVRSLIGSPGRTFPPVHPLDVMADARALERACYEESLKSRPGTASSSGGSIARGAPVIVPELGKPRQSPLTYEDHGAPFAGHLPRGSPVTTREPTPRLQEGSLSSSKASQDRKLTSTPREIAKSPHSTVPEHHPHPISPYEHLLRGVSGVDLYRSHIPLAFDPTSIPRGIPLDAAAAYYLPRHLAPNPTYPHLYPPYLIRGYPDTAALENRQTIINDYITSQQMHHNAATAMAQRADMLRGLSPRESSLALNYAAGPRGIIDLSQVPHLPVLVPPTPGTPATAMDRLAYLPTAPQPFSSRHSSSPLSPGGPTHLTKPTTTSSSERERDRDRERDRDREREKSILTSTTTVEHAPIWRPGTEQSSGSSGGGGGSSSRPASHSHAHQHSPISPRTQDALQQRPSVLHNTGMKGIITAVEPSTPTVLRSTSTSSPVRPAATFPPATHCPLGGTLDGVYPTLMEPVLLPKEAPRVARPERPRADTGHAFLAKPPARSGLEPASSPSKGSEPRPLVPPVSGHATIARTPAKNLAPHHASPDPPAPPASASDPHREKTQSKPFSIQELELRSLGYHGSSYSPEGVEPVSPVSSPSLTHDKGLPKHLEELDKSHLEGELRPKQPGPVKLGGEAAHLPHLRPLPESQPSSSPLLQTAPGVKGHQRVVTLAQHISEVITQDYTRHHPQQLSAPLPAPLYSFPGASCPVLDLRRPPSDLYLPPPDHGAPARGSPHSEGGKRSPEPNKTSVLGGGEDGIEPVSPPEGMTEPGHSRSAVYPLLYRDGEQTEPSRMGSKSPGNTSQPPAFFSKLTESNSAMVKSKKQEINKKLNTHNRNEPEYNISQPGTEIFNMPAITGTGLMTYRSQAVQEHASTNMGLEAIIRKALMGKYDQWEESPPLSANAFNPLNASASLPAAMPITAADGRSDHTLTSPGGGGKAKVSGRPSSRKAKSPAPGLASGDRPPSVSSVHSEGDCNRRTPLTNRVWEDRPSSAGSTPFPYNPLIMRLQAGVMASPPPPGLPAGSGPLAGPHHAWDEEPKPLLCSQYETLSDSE

The AC50 is the midpoint of the concentration-response curve, whichever way the signal moves. Consider `CCOC(=O)CCCn1ncn2c(cc3occc32)c1=O`, for which the AC50 in assay [1] was 12 µM (active).

Usually IC50 stands for the concentration that inhibits the measured activity by half. As for `COC(=O)Sc1nnc(-c2ccc(Br)cc2)o1`, the IC50 in [2] is > 39.8 µM (not active); in assay [3] it was 3.53 µM (active); on Ephrin type-A receptor 4, 13 µM (active); in [4], 30.7 µM (active).

Broadly, the EC50 is the concentration that produces a half-maximal response. On to `COc1cc(-c2[nH]nc3c2C(c2ccco2)C(C#N)=C(N)O3)cc(OC)c1OC` (stereo not given), for which, in [5], the IC50 is > 80 µM (inactive). For the same compound, in [6], the AC50 is 6.62 µM (active). Besides, the EC50 on Protein RecA was 0.531 µM (active).

In the case of `Cc1ccc(-n2nc(-c3ccco3)cc2C(=O)O)c(C)c1`, the figures for the IC50 in assay [4] and in assay [7] were 50 µM (inactive) and 4.94 µM (active), respectively.

As for `CC(C)(C)c1ccc(C(=O)Nc2c(C(=O)O)ccc(Cl)c2Cl)cc1`, the IC50 at Hexokinase is > 25 µM (inactive).

With `CC(C)Cc1ccc(C(=O)Nc2cc(Cl)ccc2C(=O)O)cc1`, on Hexokinase, the IC50 was 7.25 µM (active).

As to `O=C(Nc1cc(Cl)ccc1C(=O)O)c1ccoc1`, the IC50 on Hexokinase was > 25 µM (inactive).

Turning to `O=C1NCC(c2ccccc2)C1C(=O)N/N=C\c1ccc(-c2cccc(Cl)c2Cl)o1` (stereo not given), the IC50 with CHO-K1 is > 66.2 µM (inactive); in [8], 24.7 µM (inactive); in [9], 0.648 µM (active); in assay [10] it was 2.32 µM (active).

Turning to `COc1ccccc1/C=C1\SC(=S)N(CCC(=O)Nc2cccc(O)c2)C1=O`, the IC50 in assay [5] was 60.6 µM (inactive).

Regarding `COc1cc(O)c2c(=O)cc(-c3ccccc3)oc2c1` [TECHTOCHRYSIN], the AC50 was 46.2 µM (active) with HeLa and 2.51 µM (inconclusive) on Cytochrome P450 2C9.
